In ChEMBL document CHEMBL4808216, “Gut-Restricted Selective Cyclooxygenase-2 (COX-2) Inhibitors for Chemoprevention of Colorectal Cancer” (J Med Chem, 2021):
≈ marks a conversion by molar mass, not a printed value.

Legend:
[1] = biological target: T1, Prostaglandin G/H synthase 2 (Homo sapiens, UniProt P35354); test: Inhibition of COX2 (unknown origin) expressed in HEK293 TRex cells assessed as reduction in PGE2 production using arachidonic acid as substrate preincubated for 60 mins followed by substrate addition for 1 hr in presence of 10% FBS by RapidFire High-Throughput Mass Spectrometry; type: cell-based, HEK293-T-REx
T1 sequence (P35354 whole entry): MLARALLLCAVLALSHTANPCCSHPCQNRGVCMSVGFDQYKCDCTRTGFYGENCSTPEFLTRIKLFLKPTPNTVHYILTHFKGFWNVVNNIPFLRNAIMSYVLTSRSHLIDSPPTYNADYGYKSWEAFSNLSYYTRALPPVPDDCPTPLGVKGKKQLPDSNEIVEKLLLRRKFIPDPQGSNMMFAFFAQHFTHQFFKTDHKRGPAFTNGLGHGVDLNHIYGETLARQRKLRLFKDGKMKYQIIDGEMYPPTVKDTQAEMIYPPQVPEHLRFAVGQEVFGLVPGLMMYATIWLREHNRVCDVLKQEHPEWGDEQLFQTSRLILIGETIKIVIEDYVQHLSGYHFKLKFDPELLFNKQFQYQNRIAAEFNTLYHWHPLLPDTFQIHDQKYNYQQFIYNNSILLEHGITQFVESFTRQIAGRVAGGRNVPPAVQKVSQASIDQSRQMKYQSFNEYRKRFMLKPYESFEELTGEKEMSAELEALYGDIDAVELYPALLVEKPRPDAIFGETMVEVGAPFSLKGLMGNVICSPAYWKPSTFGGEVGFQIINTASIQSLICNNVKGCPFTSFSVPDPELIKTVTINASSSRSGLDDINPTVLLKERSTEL

HEK293 = test: Selectivity ratio of IC50 for COX1 (unknown origin) expressed in HEK293 TRex cells assessed as reduction in PGE2 production to IC50 for COX2 (unknown origin) expressed in HEK293 TRex cells assessed as reduction in PGE2 production; type: cell-based; conditions: Homo sapiens
[2] = Clearance in C57BL/6J mouse at 2 mg/kg, iv measured after 0.08 to 24 hrs; type: ADME, organism-based; conditions: in vivo, time 0.08-24 hrs
[3] = Ratio of drug concentration in C57BL/6J mouse colon to plasma at 10 mg/kg, po measured after 4 hr by liquid chromatographic triple-quadrupole mass spectrometric method; type: ADME, organism-based; conditions: for Kp at 4 h: C57BL/6J, colon / plasma; for Ratio: other tissue, 10 mg/kg, 4 h
[4] = biological target: T2, Prostaglandin G/H synthase 1 (Homo sapiens, UniProt P23219); test: Inhibition of COX1 (unknown origin) expressed in HEK293 TRex cells assessed as reduction in PGE2 production using arachidonic acid as substrate preincubated for 60 mins followed by substrate addition for 1 hr in presence of 10% FBS by RapidFire High-Throughput Mass Spectrometry; type: ADME, cell-based, HEK293-T-REx
T2 sequence (P23219 whole entry): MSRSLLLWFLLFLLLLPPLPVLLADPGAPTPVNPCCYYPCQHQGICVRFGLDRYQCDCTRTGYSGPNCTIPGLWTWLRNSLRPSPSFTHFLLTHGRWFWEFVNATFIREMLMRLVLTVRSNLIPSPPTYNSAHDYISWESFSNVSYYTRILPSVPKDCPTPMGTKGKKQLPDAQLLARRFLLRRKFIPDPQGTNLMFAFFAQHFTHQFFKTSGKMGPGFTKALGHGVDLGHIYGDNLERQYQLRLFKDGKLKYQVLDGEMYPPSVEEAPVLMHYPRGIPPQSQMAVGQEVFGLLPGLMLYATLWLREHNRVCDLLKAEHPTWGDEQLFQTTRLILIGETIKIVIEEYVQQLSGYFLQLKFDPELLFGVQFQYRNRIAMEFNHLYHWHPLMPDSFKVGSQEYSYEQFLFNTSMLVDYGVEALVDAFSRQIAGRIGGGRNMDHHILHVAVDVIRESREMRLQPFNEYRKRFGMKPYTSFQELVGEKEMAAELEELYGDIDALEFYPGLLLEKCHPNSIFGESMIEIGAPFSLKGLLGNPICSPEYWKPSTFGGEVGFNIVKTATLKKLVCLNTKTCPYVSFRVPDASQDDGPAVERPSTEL

[5] = Drug concentration in C57BL/6J mouse colon at 10 mg/kg, po administered as cassette dose measured at 4 hrs by LC/MS/MS analysis; type: ADME, organism-based; conditions: read-out: Ct
[6] = Drug concentration in C57BL/6J mouse plasma at 10 mg/kg, po administered as cassette dose measured at 4 hrs by LC/MS/MS analysis; type: ADME, organism-based
[7] = biological target: T2, Prostaglandin G/H synthase 1; test: Inhibition of human recombinant COX-1 assessed as reduction in peroxidase activity using arachidonic acid as substrate preincubated for 60 mins followed by substrate addition for 2 secs by ADPH based fluorometric analysis; type: ADME
[8] = biological target: T1, Prostaglandin G/H synthase 2; test: Inhibition of human recombinant COX-2 assessed as reduction in peroxidase activity using arachidonic acid as substrate preincubated for 60 mins followed by substrate addition for 2 secs by ADPH based fluorometric analysis
[9] = Equilibrium solubility of compound in FASSIF at pH 6.5; type: physicochemical
[10] = biological target: T1, Prostaglandin G/H synthase 2; test: Inhibition of COX2 in human whole blood assessed as reduction in LPS stimulated PGE2 production incubated for 1 hr by ELISA; type: tissue-based
[11] = biological target: T3, Prostaglandin G/H synthase 2 (Homo sapiens) (UniProt P35354)
T3 sequence (whole entry): T1 sequence (P35354 whole entry)
Description: Protein occupancy at human recombinant COX-2 assessed as dissociation half life

[12] = biological target: T2, Prostaglandin G/H synthase 1; test: Inhibition of COX1 in human whole blood assessed as reduction in calcium ionophore-stimulated TXB2 production incubated for 1 hr by ELISA; type: tissue-based
[13] = biological target: T1, Prostaglandin G/H synthase 2; test: Inhibition of human recombinant COX-2 using arachidonic acid as substrate preincubated for 60 mins followed by substrate addition for 2 secs by ADPH based fluorometric analysis
[14] = Protein binding in human colon assessed as unbound fraction; type: ADME, tissue-based
Mus musculus [15] = test: Chemo-protective activity in C57BL/6J mouse model of spontaneous GI-tract tumor Apc-min assessed as 18F-FDG uptake in ileum at 300 mg/kg, po incorporated into chow diet administered daily for 2 weeks and measured after 14 days by ex vivo PET imaging analysis relative to control; type: functional
[16] = Drug concentration in C57BL/6J mouse portal vein plasma at 10 mg/kg, po administered as cassette dose measured at 4 hrs by LC/MS/MS analysis; type: ADME, organism-based
[17] = Protein binding in human plasma assessed as unbound fraction; type: ADME, cell-free
Mus musculus [18] = test: Antitumor activity in C57BL/6J mouse model of spontaneous GI-tract tumor Apc-min assessed as reduction in total ileum polyp area at 300 mg/kg, po administered as suspension for 10 to 12 weeks; type: functional; conditions: time 10-12 weeks, read-out: TGI

| Structure (SMILES) | IC50 [1] [µM] | clearance [2] [mL/min/kg] | IC50 [4] [µM] | concentration at 4 h [5] [ng/g] | concentration at 4 h [6] [ng/mL] | IC50 [7] [µM] | IC50 [8] [µM] | Ratio [3] | also measured |
| --- | --- | --- | --- | --- | --- | --- | --- | --- | --- |
| COc1nc(OCC(C)(C)O)c(-c2ccc(S(C)(=O)=O)cc2)cc1CO | > 50 | – | > 50 | – | – | > 50 | 17.1 | – | – |
| CCCCOc1nc(OCC(C)(C)O)c(-c2ccc(S(N)(=O)=O)cn2)cc1CO | 0.23 | – | > 50 | 12000 | 5.5 | > 50 | 0.45 | 2179 | solubility thermodynamic [9]: 63.1 µM (≈ 26.8 µg/mL); IC50 [10]: 7.23 µM; T1/2 [11]: 23 h; IC50 [12]: > 60 µM; Ki [13]: 0.019 µM; fraction unbound [14]: 0.075; Activity (Mus musculus [15]): 54.8%; concentration at 4 h [16]: 7.1 ng/mL; fraction unbound [17]: 0.002; inhibition in vivo at 300 mg/kg (Mus musculus [18]): 25% |
| CC(C)Oc1nc(OCC(C)(C)O)c(-c2ccc(S(C)(=O)=O)cc2)cc1CO | > 50 | – | > 50 | – | – | > 50 | 4.1 | – | – |
| CC(C)(O)COc1ncc(CO)cc1-c1ccc(S(C)(=O)=O)cc1 | > 50 | – | > 50 | – | – | > 50 | > 50 | – | – |
| CCCCOc1nc(OCC2(O)COC2)c(-c2ccc(S(C)(=O)=O)cc2)cc1CO | 1.32 | 68.6 | > 50 | 11900 | 7.7 | – | – | 1596 | – |

The remaining compounds from weak to strong by IC50 [1], led by results:

| IC50 [1] [µM] | clearance [2] [mL/min/kg] | IC50 [4] [µM] | concentration at 4 h [5] [ng/g] | concentration at 4 h [6] [ng/mL] | IC50 [7] [µM] | IC50 [8] [µM] | Ratio [3] | Structure (SMILES) | also measured |
| --- | --- | --- | --- | --- | --- | --- | --- | --- | --- |
| 1.89 | – | > 50 | – | – | > 50 | 6.36 | – | Cc1cnc(OCC(C)(C)O)c(-c2ccc(S(C)(=O)=O)cc2)c1 | – |
| 0.54 | 55.4 | > 50 | 478 | 28.7 | – | – | – | CCCCOc1nc(OCC(C)(C)O)c(-c2ccc(S(C)(=O)=O)cc2)cc1COCCO | Kp at 4 h [3]: 16.5 |
| 0.21 | 89.3 | > 50 | 1850 | 2 | – | – | 1040 | CCCCOc1nc(OCC2(C)COC2)c(-c2ccc(S(C)(=O)=O)cc2)cc1CO | – |
| 0.036 | 102 | 2.46 | 1870 | 6.7 | – | – | – | CCCCOc1nc(OCC2COC2)c(-c2ccc(S(C)(=O)=O)cc2)cc1CO | Ratio IC50 (HEK293): 70; Kp at 4 h [3]: 402 |
